Measurements reported in patent US7138361B2, “Herbicidal heterocycles” (E. I. du Pont de Nemours and Company, priority 2000, dated 2006).

Experiments:
Assay type in all cases: in vivo
[1] = tested on: goosegrass (Eleusine indica); test: Test C preemergence
Outline: (§1)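 Pre- and postemergence treatments used a non-phytotoxic solvent/surfactant formulation; post-treated plants measured 2 to 18 cm. Greenhouse hold 12–14 d; % control estimated visually relative to controls.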

[2] = tested on: corn (Zea mays); test: Test C preemergence
Outline: as §1

[3] = tested on: cocklebur (Xanthium strumarium); test: Test C preemergence
Outline: as §1

[4] = tested on: common ragweed (Ambrosia elatior); test: Test C preemergence
Outline: as §1

[5] = tested on: johnsongrass (Sorghum halepense); test: Test C preemergence
Outline: as §1

[6] = tested on: morningglory (Ipomoea hederacea); test: Test C preemergence
Outline: as §1

[7] = tested on: soybean (Glycine max); test: Test C preemergence
Outline: as §1

[8] = tested on: velvetleaf (Abutilon theophrasti); test: Test C preemergence
Outline: as §1

[9] = tested on: lambsquarters (Chenopodium album); test: Test C preemergence
Outline: as §1

[10] = tested on: bermudagrass (Cynodon dactylon); test: Test C preemergence
Outline: as §1

[11] = tested on: giant foxtail (Setaria faberii); test: Test C preemergence
Outline: as §1

[12] = tested on: pigweed (Amaranthus retroflexus); test: Test C preemergence
Outline: as §1

[13] = tested on: crabgrass (Digitaria sanguinalis); test: Test C preemergence
Outline: as §1

[14] = tested on: woolly cupgrass (Eriochloa villosa); test: Test C preemergence
Outline: as §1

[15] = tested on: kochia (Kochia scoparia); test: Test C preemergence
Outline: as §1

[16] = tested on: Sunflower; test: Test C preemergence; conditions: Rate 125 g/ha; scale 0 to 100, 0 no effect, 100 complete control
[17] = tested on: Nightshade; test: Test C preemergence
[18] = tested on: Surinam grass (Brachiaria decumbens); test: Test C preemergence
Outline: as §1

[19] = tested on: yellow nutsedge (Cyperus esculentus); test: Test C preemergence
Outline: as §1

[20] = tested on: duck salad (Heteranthera limosa); test: Test C flooded paddy test; conditions: for Ducksalad plant response rating: Flooded Paddy, scale 0 to 100, 0 no effect, 100 complete control; for Plant response rating, Ducksalad: flooded paddy test, scale 0 to 100 (0 no effect, 100 complete control)
Outline: (§2)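 Plants were grown to the 2-leaf stage under flooded paddy conditions and treated. They were then kept in a greenhouse for 12 to 14 days and visually rated against untreated controls on a 0–100 scale, where 0 is no effect and 100 is complete control.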

[21] = tested on: barnyardgrass (Echinochloa crus-galli); test: Test C flooded paddy test; conditions: for Barnyardgrass plant response rating: Flooded Paddy, scale 0 to 100, 0 no effect, 100 complete control; for Plant response rating, Barnyardgrass: flooded paddy test, scale 0 to 100 (0 no effect, 100 complete control)
Outline: as §2

[22] = tested on: smallflower flatsedge (Cyperus difformis); test: Test C flooded paddy test; conditions: for Flatsedge plant response rating: Flooded Paddy, scale 0 to 100, 0 no effect, 100 complete control; for Plant response rating, Flatsedge: flooded paddy test, scale 0 to 100 (0 no effect, 100 complete control)
Outline: as §2

[23] = Rate 125 g/ha, scale 0 to 100, 0 no effect, 100 complete control
[24] = preemergence, Rate 31 g/ha, scale 0 to 100
[25] = preemergence, Rate 62 g/ha, scale 0 to 100
[26] = preemergence, Rate 250 g/ha, scale 0 to 100, 0 no effect, 100 complete control

Compound: Cc1ccc(N2CCC(n3ccc(C(C)(C)C)n3)C2=O)cc1OCCCl (stereo not shown) [Compound 109]
- Plant response rating, Goosegrass [1, 23]: 100
- Plant response rating, Goosegrass [1, 24]: 90
- Plant response rating, Goosegrass [1, 25]: 100
- Plant response rating, Goosegrass [1, 26]: 100
- Plant response rating, Corn [2, 23]: 0
- Plant response rating, Corn [2, 24]: 0
- Plant response rating, Corn [2, 25]: 0
- Plant response rating, Corn [2, 26]: 0
- Plant response rating, Cocklebur [3, 23]: 30
- Plant response rating, Cocklebur [3, 24]: 0
- Plant response rating, Cocklebur [3, 25]: 0
- Plant response rating, Cocklebur [3, 26]: 30
- Plant response rating, Ragweed, Common [4, 23]: 100
- Plant response rating, Ragweed, Common [4, 24]: 10
- Plant response rating, Ragweed, Common [4, 25]: 90
- Plant response rating, Ragweed, Common [4, 26]: 100
- Plant response rating, Johnsongrass [5, 23]: 50
- Plant response rating, Johnsongrass [5, 24]: 0
- Plant response rating, Johnsongrass [5, 25]: 10
- Plant response rating, Johnsongrass [5, 26]: 50
- Plant response rating, Morningglory [6, 23]: 100
- Plant response rating, Morningglory [6, 24]: 30
- Plant response rating, Morningglory [6, 25]: 90
- Plant response rating, Morningglory [6, 26]: 100
- Plant response rating, Soybean [7, 23]: 90
- Plant response rating, Soybean [7, 24]: 20
- Plant response rating, Soybean [7, 25]: 80
- Plant response rating, Soybean [7, 26]: 90
- Plant response rating, Velvetleaf [8, 23]: 100
- Plant response rating, Velvetleaf [8, 24]: 50
- Plant response rating, Velvetleaf [8, 25]: 100
- Plant response rating, Velvetleaf [8, 26]: 100
- Plant response rating, Lambsquarters [9, 23]: 100
- Plant response rating, Lambsquarters [9, 24]: 100
- Plant response rating, Lambsquarters [9, 25]: 100
- Plant response rating, Lambsquarters [9, 26]: 100
- Plant response rating, Bermudagrass [10, 23]: 100
- Plant response rating, Bermudagrass [10, 24]: 100
- Plant response rating, Bermudagrass [10, 25]: 100
- Plant response rating, Bermudagrass [10, 26]: 100
- Plant response rating, Foxtail, Giant [11, 23]: 20
- Plant response rating, Foxtail, Giant [11, 24]: 0
- Plant response rating, Foxtail, Giant [11, 25]: 0
- Plant response rating, Foxtail, Giant [11, 26]: 90
- Plant response rating, Pigweed [12, 23]: 70
- Plant response rating, Pigweed [12, 24]: 20
- Plant response rating, Pigweed [12, 25]: 20
- Plant response rating, Pigweed [12, 26]: 80
- Plant response rating, Crabgrass [13, 23]: 100
- Plant response rating, Crabgrass [13, 24]: 100
- Plant response rating, Crabgrass [13, 25]: 100
- Plant response rating, Crabgrass [13, 26]: 100
- Plant response rating, Cupgrass, Woolly [14, 23]: 90
- Plant response rating, Cupgrass, Woolly [14, 24]: 10
- Plant response rating, Cupgrass, Woolly [14, 25]: 90
- Plant response rating, Cupgrass, Woolly [14, 26]: 100
- Plant response rating, Kochia [15, 23]: 100
- Plant response rating, Kochia [15, 24]: 90
- Plant response rating, Kochia [15, 25]: 100
- Plant response rating, Kochia [15, 26]: 100
- Plant response rating, Sunflower [16]: 90
- Plant response rating, Nightshade ([17]; Rate 31 g/ha, scale 0 to 100): 50
- Plant response rating, Nightshade ([17]; Rate 62 g/ha, scale 0 to 100): 90
- Plant response rating, Nightshade [17, 23]: 100
- Plant response rating, Nightshade ([17]; Rate 250 g/ha, scale 0 to 100, 0 no effect, 100 complete control): 100
- Plant response rating, Surinam grass [18, 23]: 80
- Plant response rating, Surinam grass [18, 24]: 0
- Plant response rating, Surinam grass [18, 25]: 0
- Plant response rating, Surinam grass [18, 26]: 90
- Plant response rating, Nutsedge [19, 23]: 0
- Plant response rating, Nutsedge [19, 24]: 0
- Plant response rating, Nutsedge [19, 25]: 0
- Plant response rating, Nutsedge [19, 26]: 0
- Ducksalad plant response rating ([20]; Rate 250 g/ha): 70
- Ducksalad plant response rating ([20]; Rate 500 g/ha): 90
- Plant response rating, Ducksalad ([20]; Rate 62 g/ha): 0
- Plant response rating, Ducksalad ([20]; Rate 125 g/ha): 0
- Barnyardgrass plant response rating ([21]; Rate 250 g/ha): 70
- Barnyardgrass plant response rating ([21]; Rate 500 g/ha): 90
- Plant response rating, Barnyardgrass ([21]; Rate 62 g/ha): 0
- Plant response rating, Barnyardgrass ([21]; Rate 125 g/ha): 0
- Flatsedge plant response rating ([22]; Rate 250 g/ha): 80
- Flatsedge plant response rating ([22]; Rate 500 g/ha): 100
- Plant response rating, Flatsedge ([22]; Rate 62 g/ha): 40
- Plant response rating, Flatsedge ([22]; Rate 125 g/ha): 50
